Measured values published in patent US20080069857A1, “Compositions And Methods For Inhibiting Adhesions” (priority 2006, published 2008).
Converted amounts (≈) assume the structure as drawn. Blank lines part the entries; values can stand above or below the molecule they belong to.

Tests used:
[1] = United States Pharmacopoeia classification "practically insoluble"; cited from earlier work
[2] = Budesonide solubility in saline; type: physicochemical; conditions: saline or isotonic, thermodynamic from solid, 37° C., read-out: saturation solubility in saline
Experimental: The maximum solubility of budesonide in saline was determined as described (Gennaro A R, editor. Remington: The Science and Practice of Pharmacy. 20th ed. Philadelphia, Pa.: Lippincott Williams & Wilkins, 2000, which is incorporated herein by reference). First, increasing amounts of budesonide were mixed with saline to provide budesonide concentration in the system from 25 mg/ml to 0.002 mg/ml. The mixtures were constantly stirred at 37° C. for 24 hours, and then centrifuged at 12,000 rpm for 5 minutes to separate the solution phase from the solid phase. The budesonide concentrations in the solution phase were measured by High Performance Liquid Chromatography (HPLC). The saturation solubility of budesonide in saline was determined by extrapolating the line segment, of which slope was 0, to y-axis.
In a separate experiment, budesonide-saline 0.13 mg/ml was prepared as described above, divided into 1 ml aliquots, and incubated at 37° C. with constant stirring. At timed intervals, an aliquot of budesonide-saline was taken and centrifuged at 12,000 rpm for 5 minutes to separate 0.8 ml of supernatant for HPLC analysis. The remaining 0.2 ml, potentially containing precipitated budesonide, was dissolved in 0.8 ml acetonitrile and analyzed with HPLC. […]

[3] = test system: TNF-α production by primary mouse macrophages; assay: TNF-α production by LPS-challenged macrophages; type: cell-based, mouse (C57/B16); conditions: macrophages stimulated with LPS
Experimental: (§1) C57/B16 mice were purchased from Taconic (Hudson, N.Y.). 2 ml of 3% (w/v) sterile thioglycollate solution (DIFCO Laboratories, Detroit, Mich.) was injected into the peritoneal cavity. Four days after injection, the mice were euthanized by CO2, and 6 ml of ice-cold PBS buffer containing 5 mM EDTA was injected. After agitating the peritoneum with forceps, a macrophage-containing solution was aspirated. The cells were placed immediately into iced DMEM on ice prior to washing, counting and plating. Approximately 10^7 cells per mouse were obtained.
(§2) Non-adherent cells were removed by washing with 200 μl/well PBS buffer. Then 100 μl of DMEM with 10% FBS and 100 μl of medium pre-incunated with hydrogels (Sec. 2.2.9), or known concentrations of dexamethasone, were added to the adherent macrophages in each well. After incubation for 24 h at 37° C. in 5% CO2, 25 μl of 900 ng/ml of LPS (Sigma, St. Louis, Mo.; Catalog #L-4391) was added to each well to a final concentration of 100 ng/ml. After incubation for a further 16 h, the media were collected and stored at −80° C. until analyzed. The concentration of TNF-α, IL-6, and dexamethasone in those media were measured by ELISA (enzyme-linked immunosorbent assay). The ELISA kits for TNF-α, IL-6, and dexamethasone were purchased from R&D Systems (DuoSet, Cat DY406), BioLegend (Mouse IL-6 ELISA MAX™ Set (Deluxe)), and Neogen Corporation, respectively.

[4] = test system: IL-6 production by primary mouse macrophages; assay: IL-6 production by LPS-challenged macrophages; type: cell-based, mouse (C57/B16); conditions: macrophages stimulated with LPS
Experimental: as §1, §2

[5] = test system: Human mesothelial cells (ATCC, CRL-9444)
Experimental: In vitro cell viability assay: Human mesothelial cells (ATCC, CRL-9444) were cultured in Medium 199, containing Earle's salts, L-glutamine, and 2.2 g/L sodium bicarbonate and supplemented with 3.3 nM epidermal growth factor, 400 nM hydrocortisone, 870 nM insulin, 20 mM HEPES, and 10% fetal bovine serum. Cells from passage 5 through 25 were used for the following studies. Mesothelial cells were seeded into 24-well plates at a density of 50,000 cells per well in 1 ml of culture medium. […] After varying periods of incubation in the presence of the hydrogels, cell viability was assessed with an MTT assay kit (Promega CellTiter 96 Non-Radioactive Cell Proliferation Assay).
Cell proliferation assay. […] After varying periods of incubation in the presence of the hydrogels, cell viability was assessed with an MTT assay kit (Promega CellTiter 96 Non-Radioactive Cell Proliferation Assay).
Mesothelial cells were grown and maintained in a complete growth medium (GIBCO: Medium199 with Earle's BSS, 0.75 mM L-glutamine and 1.25 g/L sodium bicarbonate supplemented with 3.3 nM epidermal growth factor, 400 nM hydrocortisone, 870 nM insulin, 20 mM HEPES and 10% fetal bovine serum) at 37° C. in 5% CO2. […] The purple formazan produced by active mitochondria was solubilized using 1 ml detergent solution and then read at 570 nm by plate reader (Molecular Devices: SpectraMax 384, Union City, Calif.). […]

peritoneal adhesions = conditions: 1 week after second laparotomy
Experimental: Repeated laparotomy model. Female albino rabbits (Oryctolagus cuniculus; New Zealand White) (3±0.5 kg) were used. The first laparotomy and post-operation care were performed as described above. A 2nd laparotomy was performed after 1 week. On examination prior to the 2nd laparotomy, animals were excluded from the 2nd laparotomy for the following: (i) loss of more than 15% of body weight since the 1st laparotomy; (ii) poor feeding. On laparotomy, adhesions were scored as previously then lysed (cut). The previously excised abdominal wall was re-abraded 50 times unidirectionally, and the cecum surface between 6-12th haustra was re-abraded 150-200 times bidirectionally using a sterile brush until a bleeding bed was obtained.
Thirty animals were assigned randomly to experimental groups and test materials were applied on the injured areas. The operator was blinded as to the nature of the materials. HA-ADH and HA-CHO were sterilized by germicidal UV illumination for 2 hours and dissolved in 5 ml sterile saline, respectively. Ten ml of gel were applied on the injured sites with a dual valve applicator as previously. As controls, a group of animals received no treatment, and another group received 10 ml saline.
After treatment of the injured areas, the peritoneum and abdominal wall were closed with 2-0 Ethilon and 3-0 Dexon, respectively. The skin was closed with 2-0 Ethilon. Animals were allowed to awaken and had food and water ad libitum. Buprenorphine 0.02-0.03 mg/kg was administered sc 8-12 hours interval until 48 hours post-surgery. The animals were sacrificed 1 week after the second laparotomy by intravenous injection of sodium pentobarbital. Adhesions were scored in two ways. (i) Quality of adhesions was scored as follows: Adhesions were scored using a modification of a reported method (Burns J W, Skinner K, Colt J, Sheidlin A, Bronson R, Yaacobi Y, et al. Prevention of tissue injury and postsurgical adhesions by precoating tissues with hyaluronic acid solutions. Journal of Surgical Research 1995;59:644-652, which is incorporated herein by reference). Score 0=no adhesion, score 1=tissue adherence that would separate with gravity, score 2=tissue adherence separable by blunt dissection, score 3=adhesion requiring sharp dissection. If there were multiple adhesions of different scores, we chose the higher one as a representative score. (ii) Area of score 2 or 3 adhesions was measured for quantitative evaluation of the adhesions. The location of adhesions (whether they include suture sites or not; location and number of cecal haustra involved in the adhesion) and weight changes were recorded. Tissues recovered from the necropsy were fixed in 10% formalin, embedded in paraffin, sectioned, and stained with hematoxylin and eosin for histological examination.
Peritoneal adhesions were induced in female albino rabbits (Oryctolagus cuniculus; New Zealand White) (3±0.5 kg) through repeated laparotomies as described in our previous study [tPA]. Briefly, cecum abrasion and excision of abdominal wall were performed to induce de novo adhesions (Yeo et al. In situ cross-linkable hyaluronic acid hydrogels prevent post-operative abdominal adhesions in a rabbit model. Biomaterials 2006;27:4698-4705, which is incorporated herein by reference). A second laparotomy was performed after 1 week to cut the adhesions and introduce additional injuries to the same locations as those injured in the first laparotomy. […]

solubility at 24 h [2]: 27 µg/mL (≈ 62.7 µM)
Molecule: CCCC1O[C@@H]2C[C@H]3[C@@H]4CCC5=CC(=O)C=C[C@]5(C)[C@H]4[C@@H](O)C[C@]3(C)[C@]2(C(=O)CO)O1 (some centres unmarked) [Budesonide]
solubility in water [1]: < 100 µg/mL

Molecule: C[C@@H]1C[C@H]2[C@@H]3CCC4=CC(=O)C=C[C@]4(C)[C@@]3(F)[C@@H](O)C[C@]2(C)[C@@]1(O)C(=O)CO [Dexamethasone]
concentrations with no effect on production of TNF-α [3]: lower than 10^−9 M | concentrations with no effect on production of IL-6 [4]: lower than 10^−9 M

Molecule: HA-adipic dihydrazide [HA-ADH]
effect of polymers on mesothelial cell viability (MTT) [5]: small reductions in cell viability

Molecule: hyaluronic acid [HA, reference compound]
effect of polymers on mesothelial cell viability (MTT) [5]: small reductions in cell viability

Molecule: tPA: bolus of tPA solution (2.2 mg Activase) in the absence of HAX
Qualitative (score) % frequency, score 0 (peritoneal adhesions; 10 ml applied on injured sites): 25% | Qualitative (score) % frequency, score 1 (peritoneal adhesions; 10 ml applied on injured sites): 0% | Qualitative (score) % frequency, score 2 (peritoneal adhesions; 10 ml applied on injured sites): 0% | Qualitative (score) % frequency, score 3 (peritoneal adhesions; 10 ml applied on injured sites): 75% | Quantitative (adhesion area), median (peritoneal adhesions; area of score 2 or 3 adhesions): 2.4 cm^2
